{"source": "patent US20240180805A1", "about": "“COMPOSITION FOR INHIBITING WRINKLE” (YUKI GOSEI KOGYO CO., LTD., priority 2022, published 2024)", "test_system": "hyaluronic acid synthase (HAS2)", "details": "β-alanine 10 mM added twice, 24 h apart; total 48 h; relative to β-actin (ΔΔCt); FIG. 1"}
{"compound": "NCCC(=O)O", "note": "[β-alanine]", "values": [{"measurement": "mRNA of hyaluronic acid synthase in dermal fibroblasts", "result": "increased"}]}
